The target in this experiment is T1, TEC (Homo sapiens, UniProt P42680).
T1 construct: purchased Thermo Fisher Scientific (Life Technologies) SelectScreen
Kind of experiment: SelectScreen LanthaScreen. It counts as binding. The settings on record: read-out: % displacement. In short, it runs like this:
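Percent values come from Thermo SelectScreen profiling of NU5455, combining activity and binding assays. CSF1R was run in Z'LYTE format at Km app ATP, and CAMK1 in Adapta format with ATP listed at 10.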
A general note: Time-resolved FRET reads energy transfer from a long-lived donor to a nearby acceptor.

T1 sequence (P42680 whole entry): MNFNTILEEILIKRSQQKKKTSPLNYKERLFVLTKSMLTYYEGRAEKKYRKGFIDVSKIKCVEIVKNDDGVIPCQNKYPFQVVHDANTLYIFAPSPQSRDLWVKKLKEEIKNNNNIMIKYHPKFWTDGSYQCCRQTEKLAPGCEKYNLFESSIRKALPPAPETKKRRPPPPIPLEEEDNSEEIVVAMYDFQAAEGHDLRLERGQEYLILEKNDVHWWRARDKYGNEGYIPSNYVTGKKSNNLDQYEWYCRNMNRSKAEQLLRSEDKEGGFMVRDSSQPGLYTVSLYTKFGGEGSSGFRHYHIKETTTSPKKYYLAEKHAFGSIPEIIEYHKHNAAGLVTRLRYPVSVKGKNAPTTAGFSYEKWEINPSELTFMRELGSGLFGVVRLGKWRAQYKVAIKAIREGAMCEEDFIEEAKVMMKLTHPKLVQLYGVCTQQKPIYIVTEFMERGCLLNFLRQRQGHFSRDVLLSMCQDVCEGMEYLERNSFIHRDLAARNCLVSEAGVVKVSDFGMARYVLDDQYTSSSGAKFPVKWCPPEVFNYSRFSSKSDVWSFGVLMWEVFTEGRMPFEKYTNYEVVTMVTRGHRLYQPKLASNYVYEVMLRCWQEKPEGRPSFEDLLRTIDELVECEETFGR

Turning to `CN(C(=O)CN1CCOCC1)c1ccc2sc3c(-c4cccc5c(=O)cc(N6CC7CCC(C6)O7)oc45)cccc3c2c1` [NU5455], the inhibition at 1 µM turned out to be 8.1%.
